Source: patent publication US20110027293A1, “METHODS AND COMPOSITIONS FOR THE INHIBITION OF VIRAL INFECTION BY TARGETING INTRACELLULAR TRAFFICKING” (priority 2008, published 2011)

Tests used:
hepatitis C virus (HCV) = assay: GFP expression of cells infected with HCV construct with and without EHNA; type: cell-based; details: relative to infection in the absence of EHNA; FIG. 15B vs 15D
Experimental: (§1) The levels of infection are based on the inhibition of GFP expression, which was determined by infection of cells by MoMLV and HCV viral constructs that included cloned GFP. To determine the consequences of dynein inhibition on the viral life cycle, the expression of viral genes was correlated to the expression (or loss of expression) of GFP. Pictured are cells infected with MoMLV and Hepatitis C with and without EHNA-induced dynein inhibition. Brightness is an indication of GFP expression.
(§2) ATPase activity was inhibited using an anti-dynein small organic molecule (erythro-9-(2-hydroxy-3-nonyl)adenine; EHNA) in another set of experiments. EHNA was obtained from A. G. Scientific and dissolved in Dubelco's Modified Eagle's Medium (DMEM). The solution was added to several sets of treated cells with final concentrations of 0.1 μM, 0.2 μM, 0.5 μM, and 1 μM (FIG. 14).
(§3) To determine the consequences of the loss of cytoplasmic dynein motor activity on the viral life cycle, we cloned the green fluorescent protein (GFP) gene into the viral genomes and assessed GFP expression upon loss of cytoplasmic dynein motor activity (FIG. 15).

MoMLV = assay: GFP expression of cells infected with MoMLV construct with and without EHNA; type: cell-based, Moloney murine leukemia virus (MoMLV); details: relative to infection in the absence of EHNA; FIG. 15A vs 15C
Experimental: as §1, §2, §3

With `CCCCCC[C@@H]([C@@H](C)O)n1cnc2c(N)ncnc21` (racemic) [EHNA, erythro-9-(2-hydroxy-3-nonyl)adenine] the “infection by hepatitis C virus (inhibition of GFP expression)” value (hepatitis C virus (HCV)) was “inhibits infection” and the “infection by MoMLV (inhibition of GFP expression)” value (MoMLV) was “inhibits infection”.
